Converted amounts (≈) assume the structure as drawn. The source made the active and inactive calls. The rule behind the calls is not given here. Bridge positions count the residues as written; N and C are the ends. Square brackets hold non-standard residues; d marks the D form. Peptide text beside a SMILES is read from it. * marks the point of attachment. ξ: configuration not given here. Hexanoyl(4ξ-Me) = CCC(C)CCC(=O)*; dOrn = NCCC[C@@H](N)C(=O)O; Orn = NCCC[C@H](N)C(=O)O
Columns and labels:
Staphylococcus aureus [1] = experiment: Antibiofilm activity against Staphylococcus aureus ATCC 25923 at 1/2 to 4 times MIC measured after 24 hrs by crystal violet staining based analysis; type: functional, organism-based
Staphylococcus aureus [2] = experiment: Antibacterial activity against Staphylococcus aureus ATCC 25923 incubated for 18 to 24 hrs by broth microdilution method; type: functional; settings: time 18-24 hrs
Escherichia coli = experiment: Antibacterial activity against Escherichia coli ATCC 25922 incubated for 18 to 24 hrs by broth microdilution method; type: functional; settings: time 18-24 hrs
Pseudomonas aeruginosa [3] = experiment: Antibacterial activity against Pseudomonas aeruginosa ATCC 27853 assessed as reduction in survival bacterial growth in presence of chymotrypsin measured after 8 hrs by absorbance based analysis; type: functional, organism-based
Pseudomonas aeruginosa [4] = experiment: Antibacterial activity against Pseudomonas aeruginosa ATCC 27853 incubated for 18 to 24 hrs by broth microdilution method; type: functional; settings: time 18-24 hrs
Pseudomonas aeruginosa [5] = experiment: Antibacterial activity against Pseudomonas aeruginosa ATCC 27853 pretreated with 5% mouse serum followed by compound addition and measured after 1 hr by broth microdilution method (reference value: 2 microM); type: functional
Pseudomonas aeruginosa [6] = experiment: Antibacterial activity against Pseudomonas aeruginosa ATCC 27853 pretreated with Na-cl followed by compound addition and measured after 2 hrs by broth microdilution method (reference value: 2 microM); type: functional
[7] = Half life in mouse serum by RP-HPLC analysis; type: ADME, cell-free
Pseudomonas aeruginosa [8] = experiment: Antibacterial activity against Pseudomonas aeruginosa ATCC 27853 pretreated with 20% mouse serum followed by compound addition and measured after 6 hrs by broth microdilution method (reference value: 2 microM); type: functional
Pseudomonas aeruginosa [9] = experiment: Antibacterial activity against Pseudomonas aeruginosa ATCC 27853 pretreated with 2.5% mouse serum followed by compound addition and measured after 1 hr by broth microdilution method (reference value: 2 microM); type: functional
Pseudomonas aeruginosa [10] = experiment: Antibacterial activity against Pseudomonas aeruginosa ATCC 27853 pretreated with Mgcl2 followed by compound addition and measured after 2 hrs by broth microdilution method (reference value: 2 microM); type: functional
Pseudomonas aeruginosa [11] = experiment: Antibacterial activity against Pseudomonas aeruginosa ATCC 27853 pretreated with 5% mouse serum followed by compound addition and measured after 6 hrs by broth microdilution method (reference value: 2 microM); type: functional
Pseudomonas aeruginosa [12] = experiment: Antibacterial activity against Pseudomonas aeruginosa ATCC 27853 assessed as reduction in survival bacterial growth in presence of trypsin measured after 8 hrs by absorbance based analysis; type: functional, organism-based
Staphylococcus aureus [13] = experiment: In vivo antibacterial activity against Staphylococcus aureus ATCC 25923 infected in BALB/c mouse model assessed as reduction in bacterial count in spleen at 10 mg/kg, ip preadministered with compound for 1 hr followed by bacterial infection and measured after 6 hrs […]; type: functional, organism-based; settings: time 7.0 hrs
Pseudomonas aeruginosa [14] = experiment: Antibacterial activity against Pseudomonas aeruginosa ATCC 27853 pretreated with 10% mouse serum followed by compound addition and measured after 1 hr by broth microdilution method (reference value: 2 microM); type: functional
Pseudomonas aeruginosa [15] = experiment: Antibacterial activity against Pseudomonas aeruginosa ATCC 27853 at sub-MIC measured after 20 days in presence of gentamicin; type: functional, organism-based; settings: time 20.0 day
Pseudomonas aeruginosa [16] = experiment: Antibacterial activity against Pseudomonas aeruginosa ATCC 27853 assessed as fold increase in MIC pretreated with NaCl followed by compound addition and measured after 2 hrs by broth microdilution method; type: functional
[17] = test system: Staphylococcus epidermidis; experiment: Antibacterial activity against Staphylococcus epidermidis ATCC 12228 incubated for 18 to 24 hrs by broth microdilution method; type: functional; settings: time 18-24 hrs
Klebsiella pneumoniae = experiment: Antibacterial activity against Klebsiella pneumoniae ATCC 700603 incubated for 18 to 24 hrs by broth microdilution method; type: functional; settings: time 18-24 hrs
Pseudomonas aeruginosa [18] = experiment: Antibacterial activity against Pseudomonas aeruginosa ATCC 27853 pretreated with 20% mouse serum followed by compound addition and measured after 1 hr by broth microdilution method (reference value: 2 microM); type: functional
Pseudomonas aeruginosa [19] = experiment: Antibiofilm activity against Pseudomonas aeruginosa ATCC 27853 at 1/2 to 4 times MIC measured after 24 hrs by crystal violet staining based analysis; type: functional, organism-based
Pseudomonas aeruginosa [20] = experiment: Antibacterial activity against Pseudomonas aeruginosa ATCC 27853 pretreated with 10% mouse serum followed by compound addition and measured after 6 hrs by broth microdilution method (reference value: 2 microM); type: functional
Pseudomonas aeruginosa [21] = experiment: Antibacterial activity against Pseudomonas aeruginosa ATCC 27853 pretreated with 2.5% mouse serum followed by compound addition and measured after 6 hrs by broth microdilution method (reference value: 2 microM); type: functional
Staphylococcus aureus [22] = experiment: Antibacterial activity against Staphylococcus aureus ATCC 25923 at sub-MIC measured after 20 days in presence of rifampicin; type: functional, organism-based; settings: time 20.0 day
Staphylococcus aureus [23] = experiment: In vivo antibacterial activity against Staphylococcus aureus ATCC 25923 infected in BALB/c mouse model assessed as amelioration of pathological changes in lung at 5 to 10 mg/kg, ip measured after 7 hrs by H and E staining based analysis; type: functional, organism-based; settings: dose 5-10 mg/kg
Pseudomonas aeruginosa [24] = experiment: Antibacterial activity against Pseudomonas aeruginosa ATCC 27853 pretreated with Zncl2 followed by compound addition and measured after 2 hrs by broth microdilution method (reference value: 2 microM); type: functional
Pseudomonas aeruginosa [25] = experiment: Antibacterial activity against Pseudomonas aeruginosa ATCC 27853 pretreated with FeCl3 followed by compound addition and measured after 2 hrs by broth microdilution method (reference value: 2 microM); type: functional
Enterococcus faecalis = experiment: Antibacterial activity against Enterococcus faecalis ATCC 29212 incubated for 18 to 24 hrs by broth microdilution method; type: functional; settings: time 18-24 hrs
Staphylococcus aureus [26] = experiment: In vivo antibacterial activity against Staphylococcus aureus ATCC 25923 infected in BALB/c mouse model assessed as amelioration of pathological changes in spleen at 5 to 10 mg/kg, ip measured after 7 hrs by H and E staining based analysis; type: functional, organism-based; settings: dose 5-10 mg/kg
Staphylococcus aureus [27] = experiment: In vivo antibacterial activity against Staphylococcus aureus ATCC 25923 infected in BALB/c mouse model assessed as reduction in bacterial count in kidney at 10 mg/kg, ip preadministered with compound for 1 hr followed by bacterial infection and measured after 6 hrs […]; type: functional, organism-based; settings: time 7.0 hrs
Pseudomonas aeruginosa [28] = experiment: Antibacterial activity against Pseudomonas aeruginosa ATCC 27853 assessed as fold increase in MIC pretreated with FeCl3 followed by compound addition and measured after 2 hrs by broth microdilution method; type: functional
Pseudomonas aeruginosa [29] = experiment: Antibacterial activity against Pseudomonas aeruginosa ATCC 27853 pretreated with KCl followed by compound addition and measured after 2 hrs by broth microdilution method (reference value: 2 microM); type: functional
Erythrocyte = experiment: Hemolytic activity in mouse red blood cell assessed as hemolysis incubated for 1 hr; type: toxicity, cell-based
Bacillus subtilis = experiment: Antibacterial activity against Bacillus subtilis ATCC 23857 incubated for 18 to 24 hrs by broth microdilution method; type: functional; settings: time 18-24 hrs
Pseudomonas aeruginosa [30] = experiment: Antibacterial activity against Pseudomonas aeruginosa ATCC 27853 at sub-MIC measured after 20 days in presence of rifampicin; type: functional, organism-based; settings: time 20.0 day
Acinetobacter baumannii = experiment: Antibacterial activity against Acinetobacter baumannii ATCC 19606 incubated for 18 to 24 hrs by broth microdilution method; type: functional; settings: time 18-24 hrs
Staphylococcus aureus [31] = experiment: Antibacterial activity against Staphylococcus aureus ATCC 25923 at sub-MIC measured after 20 days in presence of gentamicin; type: functional, organism-based; settings: time 20.0 day
Pseudomonas aeruginosa [32] = experiment: Induction of morphological changes in Pseudomonas aeruginosa ATCC 27853 assessed as membrane rupture at 2 times MIC measured after 2 hrs by SEM based analysis; type: functional, organism-based
Pseudomonas aeruginosa [33] = experiment: Induction of morphological changes in Pseudomonas aeruginosa ATCC 27853 assessed as leakage of cellular content at 2 times MIC measured after 0.5 hrs by SEM based analysis; type: functional, organism-based

| Molecule | Activity (Staphylococcus aureus [1]) | MIC (Staphylococcus aureus [2]) | MIC (Escherichia coli) | MIC (Pseudomonas aeruginosa [4]) | MIC (Pseudomonas aeruginosa [5]) | MIC (Pseudomonas aeruginosa [6]) | MIC (Pseudomonas aeruginosa [8]) | MIC (Pseudomonas aeruginosa [9]) | MIC (Pseudomonas aeruginosa [10]) | MIC (Pseudomonas aeruginosa [11]) | MIC (Pseudomonas aeruginosa [14]) | Activity (Pseudomonas aeruginosa [15]) | MIC [17] | MIC (Klebsiella pneumoniae) | MIC (Pseudomonas aeruginosa [18]) | Activity (Pseudomonas aeruginosa [19]) | MIC (Pseudomonas aeruginosa [20]) | MIC (Pseudomonas aeruginosa [21]) | Activity (Staphylococcus aureus [22]) | MIC (Pseudomonas aeruginosa [24]) | also measured |
| --- | --- | --- | --- | --- | --- | --- | --- | --- | --- | --- | --- | --- | --- | --- | --- | --- | --- | --- | --- | --- | --- |
| CCCCCCCCCC(=O)N[C@H](CCCN)C(=O)N[C@H](Cc1ccc(O)cc1)C(=O)N[C@H](Cc1c[nH]c2ccccc12)C(=O)N[C@H](CCCN)C(=O)N[C@@H](CCCN)C(=O)NCC(=O)N[C@H](CCCN)C(=O)N[C@@H](Cc1c[nH]c2ccccc12)C(=O)N[C@H](C(=O)N[C@H](C(=O)NCC(=O)N[C@@H](CO)C(=O)O)[C@@H](C)CC)[C@@H](C)O | Active | 8 µM (≈ 12.6 µg/mL) | 4 µM (≈ 6.32 µg/mL) | 2 µM (≈ 3.16 µg/mL) | 2 µM (≈ 3.16 µg/mL) | 2 µM (≈ 3.16 µg/mL) | 8 µM (≈ 12.6 µg/mL) | 2 µM (≈ 3.16 µg/mL) | 2 µM (≈ 3.16 µg/mL) | 2 µM (≈ 3.16 µg/mL) | 2 µM (≈ 3.16 µg/mL) | Active | 4 µM (≈ 6.32 µg/mL) | 4 µM (≈ 6.32 µg/mL) | 4 µM (≈ 6.32 µg/mL) | Active | 4 µM (≈ 6.32 µg/mL) | 2 µM (≈ 3.16 µg/mL) | Active | 2 µM (≈ 3.16 µg/mL) | Activity (Pseudomonas aeruginosa [3]): Active; half-life [7]: 41 h; Activity (Pseudomonas aeruginosa [12]): Active; Activity (Staphylococcus aureus [13]): Active; fold change (FC) (Pseudomonas aeruginosa [16]): 8; Activity (Staphylococcus aureus [23]): Active; MIC (Pseudomonas aeruginosa [25]): < 1 µM; MIC (Enterococcus faecalis): 16 µM (≈ 25.3 µg/mL); Activity (Staphylococcus aureus [26]): Active; Activity (Staphylococcus aureus [27]): Active; fold change (FC) (Pseudomonas aeruginosa [28]): 8; MIC (Pseudomonas aeruginosa [29]): 2 µM (≈ 3.16 µg/mL); MHC (Erythrocyte): 128 µM; MIC (Bacillus subtilis): 2 µM (≈ 3.16 µg/mL); Activity (Pseudomonas aeruginosa [30]): Active; MIC (Acinetobacter baumannii): 4 µM (≈ 6.32 µg/mL); Activity (Staphylococcus aureus [31]): Active |
| CCC(C)CCC(=O)N[C@H](CC(N)=O)C(=O)N[C@H](Cc1ccc(O)cc1)C(=O)N[C@H](Cc1c[nH]c2ccccc12)C(=O)N[C@H](CCCN)C(=O)N[C@@H](CCCN)C(=O)NCC(=O)N[C@H](CCCN)C(=O)N[C@@H](Cc1c[nH]c2ccccc12)C(=O)N[C@@H]1C(=O)N[C@@H]([C@@H](C)CC)C(=O)NCC(=O)N[C@@H](CO)C(=O)O[C@@H]1C (stereo not given in full) ({Hexanoyl(4ξ-Me)}-[dN][dY][dW][dOrn][Orn]G[dOrn]WTIGS; ester 9-C) | Active | 64 µM (≈ 97.3 µg/mL) | 2 µM (≈ 3.04 µg/mL) | 2 µM (≈ 3.04 µg/mL) | 2 µM (≈ 3.04 µg/mL) | 4 µM (≈ 6.08 µg/mL) | 16 µM (≈ 24.3 µg/mL) | 2 µM (≈ 3.04 µg/mL) | 8 µM (≈ 12.2 µg/mL) | 8 µM (≈ 12.2 µg/mL) | 4 µM (≈ 6.08 µg/mL) | Active | 32 µM (≈ 48.6 µg/mL) | 2 µM (≈ 3.04 µg/mL) | 4 µM (≈ 6.08 µg/mL) | Active | 8 µM (≈ 12.2 µg/mL) | 8 µM (≈ 12.2 µg/mL) | Active | 4 µM (≈ 6.08 µg/mL) | Activity (Pseudomonas aeruginosa [3]): Active; half-life [7]: 4.47 h; Activity (Pseudomonas aeruginosa [12]): Active; fold change (FC) (Pseudomonas aeruginosa [16]): 2; MIC (Pseudomonas aeruginosa [25]): 4 µM (≈ 6.08 µg/mL); MIC (Enterococcus faecalis): 64 µM (≈ 97.3 µg/mL); Activity (Pseudomonas aeruginosa [32]): Active; fold change (FC) (Pseudomonas aeruginosa [28]): 2; Activity (Pseudomonas aeruginosa [33]): Active; MIC (Pseudomonas aeruginosa [29]): 8 µM (≈ 12.2 µg/mL); MHC (Erythrocyte): 128 µM; MIC (Bacillus subtilis): 8 µM (≈ 12.2 µg/mL); Activity (Pseudomonas aeruginosa [30]): Active; MIC (Acinetobacter baumannii): 8 µM (≈ 12.2 µg/mL); Activity (Staphylococcus aureus [31]): Active |
| POLYMYXIN B | Active | 16 µM | 2 µM | 2 µM | 2 µM | < 1 µM | 4 µM | 2 µM | 2 µM | 2 µM | 2 µM | Active | 32 µM | 4 µM | 2 µM | Active | 4 µM | 2 µM | Active | < 1 µM | Activity (Staphylococcus aureus [13]): Active; Activity (Staphylococcus aureus [23]): Active; MIC (Pseudomonas aeruginosa [25]): < 1 µM; MIC (Enterococcus faecalis): 128 µM; Activity (Pseudomonas aeruginosa [32]): Active; Activity (Staphylococcus aureus [26]): Active; Activity (Staphylococcus aureus [27]): Active; Activity (Pseudomonas aeruginosa [33]): Active; MIC (Pseudomonas aeruginosa [29]): < 1 µM; MIC (Bacillus subtilis): 8 µM; Activity (Pseudomonas aeruginosa [30]): Active; MIC (Acinetobacter baumannii): 1 µM; Activity (Staphylococcus aureus [31]): Active |
